Data published in patent publication US20220009920A1 (GB005, Inc., priority 2020, published 2022).

Assays:
Test in all cases: Large panel kinase profiling
Assay type in all cases: biochemical
Details in all cases: 1 μM test article, 1 mM ATP
STK17A/DRAK1 = molecular target: T1, STK17A/DRAK1 (Homo sapiens, UniProt Q9UEE5)
T1 construct: AssayQuant Technologies, Inc. (contract assay)
T1 sequence (Q9UEE5 1-414): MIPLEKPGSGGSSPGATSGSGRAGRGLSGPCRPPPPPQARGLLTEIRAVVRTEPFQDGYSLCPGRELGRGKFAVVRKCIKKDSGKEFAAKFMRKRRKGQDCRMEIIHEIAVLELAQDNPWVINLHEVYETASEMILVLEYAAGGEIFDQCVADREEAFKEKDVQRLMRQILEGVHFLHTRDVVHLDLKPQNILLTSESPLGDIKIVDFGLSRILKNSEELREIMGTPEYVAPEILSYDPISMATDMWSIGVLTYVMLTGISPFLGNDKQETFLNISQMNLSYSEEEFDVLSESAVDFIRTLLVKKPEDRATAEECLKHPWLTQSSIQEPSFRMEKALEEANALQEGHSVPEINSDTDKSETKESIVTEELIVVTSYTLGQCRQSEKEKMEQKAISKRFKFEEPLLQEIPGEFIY
Procedure, shortened: (§1)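 Kinase activity was followed with the PhosphoSens CSox-Sensor platform, testing compound at 1 μM in the presence of 1 mM ATP. Reactions ran at 30° C. and fluorescence (Ex 360 nm/Em 485 nm) was read kinetically every 1 min.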

PRKCQ/PKCQ = PRKCQ/PKCQ (Homo sapiens, UniProt Q04759)
Procedure, shortened: as §1

MUSK = molecular target: T2, MUSK (Homo sapiens, UniProt O15146)
T2 construct: AssayQuant Technologies, Inc. (assay service)
T2 sequence (O15146 24-869): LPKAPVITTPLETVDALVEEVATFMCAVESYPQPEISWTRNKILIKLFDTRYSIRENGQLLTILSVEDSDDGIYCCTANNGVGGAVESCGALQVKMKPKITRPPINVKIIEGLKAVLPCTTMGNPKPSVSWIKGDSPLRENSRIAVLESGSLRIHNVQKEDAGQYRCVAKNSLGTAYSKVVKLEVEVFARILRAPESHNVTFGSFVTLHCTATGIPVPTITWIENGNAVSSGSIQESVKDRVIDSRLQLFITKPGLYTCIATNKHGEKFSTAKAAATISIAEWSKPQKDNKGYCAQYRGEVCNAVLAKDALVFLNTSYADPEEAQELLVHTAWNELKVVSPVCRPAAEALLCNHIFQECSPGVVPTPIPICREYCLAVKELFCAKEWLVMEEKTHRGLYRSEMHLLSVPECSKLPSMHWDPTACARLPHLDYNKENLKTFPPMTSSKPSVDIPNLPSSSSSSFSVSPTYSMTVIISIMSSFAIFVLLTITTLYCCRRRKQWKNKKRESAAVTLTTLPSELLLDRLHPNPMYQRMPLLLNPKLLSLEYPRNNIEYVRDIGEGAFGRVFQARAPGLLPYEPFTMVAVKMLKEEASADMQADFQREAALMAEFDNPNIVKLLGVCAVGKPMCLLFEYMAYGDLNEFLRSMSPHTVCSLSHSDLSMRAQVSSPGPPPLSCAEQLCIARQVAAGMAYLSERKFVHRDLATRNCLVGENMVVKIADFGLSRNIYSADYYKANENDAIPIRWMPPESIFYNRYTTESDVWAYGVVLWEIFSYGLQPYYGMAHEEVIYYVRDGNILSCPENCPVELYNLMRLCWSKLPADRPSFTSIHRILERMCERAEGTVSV
Procedure, shortened: as §1

MAPK8/JNK1 = molecular target: T3, MAPK8/JNK1 (Homo sapiens, UniProt P45983)
T3 construct: AssayQuant Technologies, Inc. (service provider)
Procedure, shortened: as §1

PTK2 = PTK2 (Homo sapiens, UniProt Q05397)
Procedure, shortened: as §1

CDK4/D3 = molecular target: T4, CDK4/D3 (Homo sapiens, UniProt P11802)
T4 construct: AssayQuant Technologies, Inc. (ran the panel)
Procedure, shortened: as §1

PTK6 = PTK6 (Homo sapiens, UniProt Q13882)
Procedure, shortened: as §1

HIPK4 = molecular target: T5, HIPK4 (Homo sapiens, UniProt Q8NE63)
T5 construct: AssayQuant Technologies, Inc. (service provider)
T5 sequence (Q8NE63 1-616): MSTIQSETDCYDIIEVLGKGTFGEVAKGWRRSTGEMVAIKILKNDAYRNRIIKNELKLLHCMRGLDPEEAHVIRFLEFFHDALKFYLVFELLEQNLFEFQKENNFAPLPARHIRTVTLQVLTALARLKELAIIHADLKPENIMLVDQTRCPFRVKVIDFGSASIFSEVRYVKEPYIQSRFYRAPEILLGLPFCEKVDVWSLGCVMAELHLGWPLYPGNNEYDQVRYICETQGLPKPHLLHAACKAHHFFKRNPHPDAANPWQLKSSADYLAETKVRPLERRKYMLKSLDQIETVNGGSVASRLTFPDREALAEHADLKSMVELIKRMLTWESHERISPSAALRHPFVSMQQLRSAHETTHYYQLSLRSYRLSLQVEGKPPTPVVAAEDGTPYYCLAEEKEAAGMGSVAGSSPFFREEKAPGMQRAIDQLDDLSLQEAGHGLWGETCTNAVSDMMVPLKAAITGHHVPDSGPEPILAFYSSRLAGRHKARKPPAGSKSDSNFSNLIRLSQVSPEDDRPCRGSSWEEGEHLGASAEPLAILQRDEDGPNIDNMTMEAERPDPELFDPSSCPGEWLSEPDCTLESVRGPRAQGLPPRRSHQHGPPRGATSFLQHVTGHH
Procedure, shortened: as §1

LTK = LTK (Homo sapiens, UniProt P29376)
Procedure, shortened: as §1

GRK4 = molecular target: T6, GRK4 (Homo sapiens, UniProt P32298)
T6 construct: AssayQuant Technologies, Inc. (service provider)
Procedure, shortened: as §1

T3 sequence (P45983 whole entry): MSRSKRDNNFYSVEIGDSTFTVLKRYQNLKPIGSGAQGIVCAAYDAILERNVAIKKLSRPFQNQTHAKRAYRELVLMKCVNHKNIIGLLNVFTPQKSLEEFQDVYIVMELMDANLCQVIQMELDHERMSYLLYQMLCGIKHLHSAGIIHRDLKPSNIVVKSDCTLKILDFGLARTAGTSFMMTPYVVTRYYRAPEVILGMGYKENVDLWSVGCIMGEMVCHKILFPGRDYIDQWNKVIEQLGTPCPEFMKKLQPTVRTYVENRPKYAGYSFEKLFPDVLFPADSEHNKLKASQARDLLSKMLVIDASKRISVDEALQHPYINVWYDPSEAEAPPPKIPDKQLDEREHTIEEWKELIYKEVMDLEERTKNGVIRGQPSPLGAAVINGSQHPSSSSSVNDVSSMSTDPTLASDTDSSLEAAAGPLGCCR
PRKCQ/PKCQ, sequence (Q04759 whole entry): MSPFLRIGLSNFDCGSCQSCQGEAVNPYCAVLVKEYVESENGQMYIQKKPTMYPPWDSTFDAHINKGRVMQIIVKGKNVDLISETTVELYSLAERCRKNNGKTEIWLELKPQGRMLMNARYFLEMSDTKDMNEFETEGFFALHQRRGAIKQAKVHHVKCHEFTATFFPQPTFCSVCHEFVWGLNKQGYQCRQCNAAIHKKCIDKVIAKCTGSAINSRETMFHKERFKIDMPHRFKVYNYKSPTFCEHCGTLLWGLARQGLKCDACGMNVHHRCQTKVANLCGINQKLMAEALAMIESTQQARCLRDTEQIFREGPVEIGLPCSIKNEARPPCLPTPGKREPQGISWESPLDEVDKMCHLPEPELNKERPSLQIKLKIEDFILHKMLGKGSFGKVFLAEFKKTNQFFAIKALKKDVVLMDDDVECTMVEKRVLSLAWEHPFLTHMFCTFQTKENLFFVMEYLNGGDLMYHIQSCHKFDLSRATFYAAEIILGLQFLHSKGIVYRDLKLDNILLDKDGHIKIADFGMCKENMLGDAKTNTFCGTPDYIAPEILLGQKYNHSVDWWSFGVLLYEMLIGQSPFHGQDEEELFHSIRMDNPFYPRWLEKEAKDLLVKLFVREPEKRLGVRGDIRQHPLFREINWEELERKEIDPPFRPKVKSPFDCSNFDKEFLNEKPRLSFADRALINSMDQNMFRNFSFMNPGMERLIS
LTK, sequence (P29376 17-864, species assumed): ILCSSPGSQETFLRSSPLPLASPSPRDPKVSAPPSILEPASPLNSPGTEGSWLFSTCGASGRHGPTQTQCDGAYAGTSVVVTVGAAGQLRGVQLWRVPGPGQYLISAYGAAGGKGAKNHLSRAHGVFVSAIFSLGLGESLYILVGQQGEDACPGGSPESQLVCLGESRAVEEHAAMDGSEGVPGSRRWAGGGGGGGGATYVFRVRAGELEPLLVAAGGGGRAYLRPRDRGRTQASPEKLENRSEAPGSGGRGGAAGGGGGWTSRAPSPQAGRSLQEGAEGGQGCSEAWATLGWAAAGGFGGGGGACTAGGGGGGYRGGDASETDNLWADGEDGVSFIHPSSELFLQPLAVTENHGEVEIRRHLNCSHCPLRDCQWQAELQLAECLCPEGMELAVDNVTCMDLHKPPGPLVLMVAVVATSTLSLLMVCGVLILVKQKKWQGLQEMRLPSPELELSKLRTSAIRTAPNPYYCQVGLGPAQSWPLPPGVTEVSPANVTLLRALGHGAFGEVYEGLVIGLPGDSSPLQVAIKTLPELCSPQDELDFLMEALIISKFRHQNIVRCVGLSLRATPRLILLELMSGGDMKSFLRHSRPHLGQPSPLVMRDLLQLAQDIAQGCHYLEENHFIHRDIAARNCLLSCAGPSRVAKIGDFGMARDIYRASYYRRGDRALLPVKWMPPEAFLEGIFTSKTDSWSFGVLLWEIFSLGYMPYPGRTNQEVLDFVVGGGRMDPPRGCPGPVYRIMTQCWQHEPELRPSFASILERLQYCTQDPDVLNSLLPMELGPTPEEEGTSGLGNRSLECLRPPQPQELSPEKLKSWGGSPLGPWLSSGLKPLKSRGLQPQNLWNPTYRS
PTK2, sequence (Q05397 whole entry, species assumed): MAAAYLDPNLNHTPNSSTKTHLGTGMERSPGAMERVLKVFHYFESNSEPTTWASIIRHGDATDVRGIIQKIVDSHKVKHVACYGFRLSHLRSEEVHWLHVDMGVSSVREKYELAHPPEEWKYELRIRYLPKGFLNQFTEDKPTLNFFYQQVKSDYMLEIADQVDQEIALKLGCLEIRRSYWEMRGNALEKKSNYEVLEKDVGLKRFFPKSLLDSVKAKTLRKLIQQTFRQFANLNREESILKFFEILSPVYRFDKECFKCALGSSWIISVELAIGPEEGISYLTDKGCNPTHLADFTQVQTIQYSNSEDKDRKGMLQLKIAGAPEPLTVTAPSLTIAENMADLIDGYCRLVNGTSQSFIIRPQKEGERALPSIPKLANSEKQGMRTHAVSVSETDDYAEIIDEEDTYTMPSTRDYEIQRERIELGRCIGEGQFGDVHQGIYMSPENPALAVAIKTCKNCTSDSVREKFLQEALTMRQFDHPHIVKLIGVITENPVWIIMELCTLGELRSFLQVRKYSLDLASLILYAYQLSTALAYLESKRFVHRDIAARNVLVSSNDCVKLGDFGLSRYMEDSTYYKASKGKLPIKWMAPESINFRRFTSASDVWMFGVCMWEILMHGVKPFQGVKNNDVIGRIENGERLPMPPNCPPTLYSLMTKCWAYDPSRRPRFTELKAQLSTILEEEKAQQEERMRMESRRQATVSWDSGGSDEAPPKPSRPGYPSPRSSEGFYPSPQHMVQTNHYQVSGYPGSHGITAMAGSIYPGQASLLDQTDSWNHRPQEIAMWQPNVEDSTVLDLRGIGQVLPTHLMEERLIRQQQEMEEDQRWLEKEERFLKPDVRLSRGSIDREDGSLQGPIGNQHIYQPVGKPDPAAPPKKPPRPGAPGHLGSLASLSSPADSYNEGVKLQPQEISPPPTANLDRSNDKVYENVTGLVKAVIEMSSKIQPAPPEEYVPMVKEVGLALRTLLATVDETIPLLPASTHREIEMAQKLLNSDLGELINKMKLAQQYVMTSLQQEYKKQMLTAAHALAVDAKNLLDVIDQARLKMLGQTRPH
PTK6, sequence (Q13882 whole entry, species assumed): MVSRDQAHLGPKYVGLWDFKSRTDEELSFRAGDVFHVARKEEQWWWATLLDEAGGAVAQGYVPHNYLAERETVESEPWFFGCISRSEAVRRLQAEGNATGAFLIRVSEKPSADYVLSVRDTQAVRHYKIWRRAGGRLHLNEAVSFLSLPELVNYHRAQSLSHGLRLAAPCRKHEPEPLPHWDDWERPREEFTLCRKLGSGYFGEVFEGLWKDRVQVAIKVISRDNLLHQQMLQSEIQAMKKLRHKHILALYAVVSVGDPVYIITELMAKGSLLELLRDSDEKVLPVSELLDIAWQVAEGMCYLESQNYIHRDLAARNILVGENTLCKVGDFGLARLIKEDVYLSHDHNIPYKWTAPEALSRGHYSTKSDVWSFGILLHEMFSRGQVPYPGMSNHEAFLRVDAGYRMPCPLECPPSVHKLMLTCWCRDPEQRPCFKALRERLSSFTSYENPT
T4 sequence (P11802 whole entry, species assumed): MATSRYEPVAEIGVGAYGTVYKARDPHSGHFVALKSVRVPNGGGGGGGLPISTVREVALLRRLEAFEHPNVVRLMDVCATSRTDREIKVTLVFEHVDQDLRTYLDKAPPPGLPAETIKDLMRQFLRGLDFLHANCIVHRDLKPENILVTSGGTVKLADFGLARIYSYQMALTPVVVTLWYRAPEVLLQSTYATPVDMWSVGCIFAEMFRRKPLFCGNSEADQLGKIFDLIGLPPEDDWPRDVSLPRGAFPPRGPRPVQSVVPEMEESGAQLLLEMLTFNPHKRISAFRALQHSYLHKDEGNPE
T4 sequence (P30281 whole entry partner, species assumed): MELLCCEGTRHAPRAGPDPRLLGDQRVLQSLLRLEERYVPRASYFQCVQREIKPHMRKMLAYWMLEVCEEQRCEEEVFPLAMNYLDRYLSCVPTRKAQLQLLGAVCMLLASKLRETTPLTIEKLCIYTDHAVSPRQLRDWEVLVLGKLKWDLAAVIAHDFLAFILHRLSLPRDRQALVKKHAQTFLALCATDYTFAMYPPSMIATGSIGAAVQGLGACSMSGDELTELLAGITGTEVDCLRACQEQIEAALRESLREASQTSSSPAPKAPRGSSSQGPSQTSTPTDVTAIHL
T6 sequence (P32298 whole entry, species assumed): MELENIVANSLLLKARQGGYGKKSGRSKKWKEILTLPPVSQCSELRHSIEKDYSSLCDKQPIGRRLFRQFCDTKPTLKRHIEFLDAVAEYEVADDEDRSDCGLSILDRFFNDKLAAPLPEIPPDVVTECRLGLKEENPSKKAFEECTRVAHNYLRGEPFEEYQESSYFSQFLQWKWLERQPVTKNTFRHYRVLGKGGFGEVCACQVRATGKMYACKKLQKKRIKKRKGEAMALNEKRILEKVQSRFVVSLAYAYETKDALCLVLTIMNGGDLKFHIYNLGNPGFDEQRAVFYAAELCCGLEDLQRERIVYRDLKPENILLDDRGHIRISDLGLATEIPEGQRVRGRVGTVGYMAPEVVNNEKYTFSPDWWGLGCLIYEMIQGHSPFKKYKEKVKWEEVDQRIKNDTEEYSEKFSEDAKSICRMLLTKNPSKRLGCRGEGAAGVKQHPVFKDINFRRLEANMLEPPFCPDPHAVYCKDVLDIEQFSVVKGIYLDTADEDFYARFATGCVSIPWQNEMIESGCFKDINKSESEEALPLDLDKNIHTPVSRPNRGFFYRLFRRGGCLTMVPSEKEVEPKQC

SMILES | inhibition at 1 µM (STK17A/DRAK1) [%] | inhibition at 1 µM (PRKCQ/PKCQ) [%] | inhibition at 1 µM (MUSK) [%] | inhibition at 1 µM (MAPK8/JNK1) [%] | inhibition at 1 µM (PTK2) [%] | inhibition at 1 µM (CDK4/D3) [%] | inhibition at 1 µM (PTK6) [%] | inhibition at 1 µM (HIPK4) [%] | inhibition at 1 µM (LTK) [%] | inhibition at 1 µM (GRK4) [%]
C=CC(=O)N1CCCC(c2c(F)cc(C(N)=O)c3[nH]c4c(c23)CCCCC4)C1 (single isomer, unassigned) [Compound 5-6] | 22.4 | -3.7 | 10.9 | -0.6 | -69.1 | -4.9 | -14.1 | -1.6 | 0.6 | 3.4
C=CC(=O)N1CCC[C@@H](c2c(F)cc(C(N)=O)c3[nH]c4c(c23)CCC4)C1 [Compound 10-2, (S)-8-(1-acryloylpiperidin-3-yl)-7-fluoro-1,2,3,4-tetrahydrocyclo-penta[b]indole-5-carboxamide] | -28 | -72.5 | 3 | 13.6 | -14.6 | -19.5 | 10.1 | 24.3 | 24.4 | -36.1
C=CC(=O)N1CCC[C@@H](c2c(F)cc(C(N)=O)c3[nH]c4c(c23)CC2(CC4)CC2)C1 [Compound 6-2, (S)-5-(1-acryloylpiperidin-3-yl)-6-fluoro-1,2,4,9-tetrahydrospiro[carbazole-3,1′-cyclopropane]-8-carboxamide] | -33.9 | 0.7 | -3.1 | 21.7 | 16.5 | -13 | 22.2 | -1.9 | 18.3 | -53
